One test relates to Proteus mirab. Description: MIC (MHK), agar diffusion and serial dilution test. The following applies: read-out: MHK-Werte. In kind it is cell-based. The text has this:
(§1) Die Untersuchungen auf die antibakterielle Wirksamkeit in vitro wurde nach dem Agar-Diffusionstest und nach dem Reihenverdünnungstest in Anlehnung an die von P. Klein in "Bakteriologische Grundlagen der Chemotherapeutischen Laboratoriumspraxis", Springerverlag 1957, Seiten 53 bis 76 und 87 bis 109, beschriebenen Methodik durchgeführt.
(§2) Für D-α-[3-(3,4-Dihydro-3-methyl-2-hydroxy-4-oxo-5- pyrimidyl)-ureido/-p-hydroxybenzyl-penicillin-Natrium (Verbindung 1) und für Natrium-7-{D-α-[3-(3,4-Dihydro-2-hydroxy-3-methyl-4-oxo-5-pyrimidyl)-ureido]-p-hydroxyphenylacetamido}-3-[(1-methyl-tetrazol-5-yl)-thiomethyl]-ceph-3-em-4-carboxylat (Verbindung 2) wurden folgende MHK-Werte gegen einige gramnegative Keime gemessen: […]
On the technique in general: A growth-free zone around the sample is the usual read-out of agar diffusion tests.

In a further test the test system is E.coli ATCC 11775. Description: MIC (MHK), agar diffusion and serial dilution test. It counts as cell-based. The following applies: Escherichia coli, ATCC11775, read-out: MHK-Werte.
Excerpt: as §1, §2

For the next test, the system named is Pseud.aerug Hbg. The test is described as follows: MIC (MHK), agar diffusion and serial dilution test. It counts as cell-based. As to conditions: read-out: MHK-Werte.
Excerpt: as §1, §2

For another test, the system named is E.coli 12593/ 74. The test is described as follows: MIC (MHK), agar diffusion and serial dilution test. In kind it is cell-based. As to conditions: Escherichia coli, read-out: MHK-Werte.
Excerpt: as §1, §2

The next test has as its system E.coli ATCC 9637. The test is described as follows: MIC (MHK), agar diffusion and serial dilution test. It counts as cell-based. The following applies: Escherichia coli, ATCC9637, read-out: MHK-Werte.
Excerpt: as §1, §2

The test system of another test is Proteus Vulgaris. Description: MIC (MHK), agar diffusion and serial dilution test. In kind it is cell-based. The following applies: read-out: MHK-Werte.
Excerpt: as §1, §2

The test system of test [1] is Ser. marcescens ATCC 13880. Description: MIC (MHK), agar diffusion and serial dilution test. In kind it is cell-based. As to conditions: Serratia marcescens, ATCC13880, read-out: MHK-Werte.
Excerpt: as §1, §2

Another test relates to Pseud.aerug. ATCC 10145. The test is described as follows: MIC (MHK), agar diffusion and serial dilution test. In kind it is cell-based. The following applies: read-out: MHK-Werte.
Excerpt: as §1, §2

The subject of another test is Klebs. pneum. 272. The test is described as follows: MIC (MHK), agar diffusion and serial dilution test. It counts as cell-based. As to conditions: read-out: MHK-Werte.
Excerpt: as §1, §2

The test system of another test is Klebs. pneum. ATCC 10031. Description: MIC (MHK), agar diffusion and serial dilution test. In kind it is cell-based. As to conditions: read-out: MHK-Werte.
Excerpt: as §1, §2

Test [2] has as its system E. coli des Stammes ATCC 11 775. The test is described as follows: ED50 in intraperitoneal E. coli infection of mice. In kind it is in vivo, Albino-Mäusen vom Stamm NMRI. As to conditions: Escherichia coli, ATCC11, sc; intraperitoneal E. coli ATCC 11 775 infection, NMRI albino mice, subcutaneous application; treated three times on day 1 (first 1 h after infection), twice daily on 2 further days. As for the experimental part: Dabei wurde die ED50 der oben genannten Verbindungen 1 und 2 bei einer intraperitonealen E. coli-Infektion an Albino-Mäusen vom Stamm NMRI bestimmt. Am ersten Tag wurde dreimal behandelt (erstmals 1 h nach Infektion) und 2 weitere Tage zweimalig.

Converted amounts (≈) assume the structure as drawn.

With `Cn1c(O)ncc(NC(=O)N[C@@H](C(=O)N[C@@H]2C(=O)N3[C@@H]2SC(C)(C)[C@@H]3C(=O)O)c2ccc(O)cc2)c1=O` [Verbindung 1], the MIC was 1.25 µg/mL (≈ 2.35 µM) with Proteus mirab.; 2.5 µg/mL (≈ 4.69 µM) in the test with E.coli ATCC 11775; 5 µg/mL (≈ 9.39 µM) with Pseud.aerug Hbg.; > 80 µg/mL with E.coli 12593/ 74; 2.5 µg/mL (≈ 4.69 µM) with E.coli ATCC 9637; 10 µg/mL (≈ 18.8 µM) with Proteus Vulgaris. The MIC was 2.5 µg/mL (≈ 4.69 µM) in test [1], 5 µg/mL (≈ 9.39 µM) in the test on Pseud.aerug. ATCC 10145, 40 to 80 µg/mL (≈ 75.1 to 150 µM) with Klebs. pneum. 272 and 40 to 80 µg/mL (≈ 75.1 to 150 µM) in the test on Klebs. pneum. ATCC 10031. Also, the ED50 – broadly, the dose that gives a 50% effect, or the effect in half of the subjects – in test [2] stood at 7 mg/kg.
Consider `Cn1nnnc1SCC1=C(C(=O)O)N2C(=O)[C@@H](NC(=O)[C@H](NC(=O)Nc3cnc(O)n(C)c3=O)c3ccc(O)cc3)[C@H]2SC1` [Beispiel 2], for which the MIC came out at 1.25 µg/mL (≈ 1.94 µM) in the test on Proteus mirab.; 1.25 µg/mL (≈ 1.94 µM) in the test on E.coli ATCC 11775; 20 µg/mL (≈ 31 µM) in the test with Pseud.aerug Hbg.; 5 µg/mL (≈ 7.76 µM) in the test on E.coli 12593/ 74; 1.25 µg/mL (≈ 1.94 µM) in the test with E.coli ATCC 9637; 10 µg/mL (≈ 15.5 µM) in the test on Proteus Vulgaris. Further, the MIC in test [1] is 10 µg/mL (≈ 15.5 µM); with Pseud.aerug. ATCC 10145, 20 to 40 µg/mL (≈ 31 to 62 µM); in the test with Klebs. pneum. 272 it was 2.5 µg/mL (≈ 3.88 µM); in the test on Klebs. pneum. ATCC 10031, 1.25 µg/mL (≈ 1.94 µM).
Regarding `Cn1nnnc1SCC1=C(C(=O)[O-])N2C(=O)C(NC(=O)[C@H](NC(=O)Nc3cnc(O)n(C)c3=O)c3ccc(O)cc3)[C@H]2SC1.[Na+]` (stereo partly drawn) [Verbindung 2, Natrium-7-{D-α-[3-(3,4-Dihydro-2-hydroxy-3-methyl-4-oxo-5-pyrimidyl)-ureido]-p-hydroxyphenylacetamido}-3-[(1-methyl-tetrazol-5-yl)-thiomethyl]-ceph-3-em-4-carboxylat], the ED50 in test [2] worked out at 3.3 mg/kg.

The values are drawn from patent publication EP0006532A1, “Lactams, methods for their preparation, and medicaments containing them” (Dr. Karl Thomae GmbH, priority 1978, dated 1980).
